Here are results for 3 molecules from patent publication US10993999B2, “Materials and methods for producing improved lentiviral vector particles” (IMMUNE DESIGN CORP., priority 2012, dated 2021).

The assay concerns PBMC-derived human dendritic cells. It counts as cell-based.

Read-outs that look alike come from different tables or passages of the source.

In the case of `Cc1cn([C@H]2C[C@H](N=[N+]=[N-])[C@@H](CO)O2)c(=O)[nH]c1=O` [AZT], the “effect of reverse-transcriptase inhibitor on transduction” value (integration-deficient VSV-G-pseudotyped particles, 200 ng p24) is “inhibited”. Regarding `Cc1ccnc2c1NC(=O)c1cccnc1N2C1CC1` [Nevirapine], where the note is “integration-competent VSV-G-pseudotyped particles, 20 ng p24”, the “effect of reverse-transcriptase inhibitor on transduction” value is “inhibited”.

B1: Vpx: SIVmac Vpx protein (SEQ ID NO: 44), SAMHD1 inhibitor packaged into the lentivirus particles (protein)
chain: MSDPRERIPPGNSGEETIGEAFEWLNRTVEEINREAVNHLPRELIFQVWQRSWEYWHDEQGMSQSYVKYRYLCLMQKALFMHCKKGCRCLGEGHGAGGWRPGPPPPPPPGLA
modifications: Simian immunodeficiency virus
Consider B1, for which the “role of Vpx in transduction of human dendritic cells” value is on record as “enhanced” (integration-competent VSV-G-pseudotyped lentiviral vector particles) and “required” (integration-deficient VSV-G-pseudotyped lentiviral particles).
